In patent publication US12606568B2, “SMARCA degraders and uses thereof” (Kymera Therapeutics, Inc., priority 2020, dated 2026) one finds Dmax and DC50 data, which are given here for four compounds.

Where only a bound is given, the exact number is not on record here.

What all share (type): cell-based
For one assay, the target named is T1, SMARCA4 (Homo sapiens, UniProt P51532).
T1 construct: SMARCA2 and SMARCA4 protein degradation in MV4-11 cells; endogenous in cells; host or cells: MV4-11
Kind of assay: SMARCA4 Western blot MV4-11 degradation. Conditions: 24 h; for Dmax: MV4-11, MV4-11 cells, read-out: SMARCA4 MSD MV411 degradation 24 h: average Dmax %; for DC50: MV4-11 cells, read-out: SMARCA4 MSD MV411 degradation 24 h: Mean external-Abs DC50.

The target of assay [1] is T2, SMARCA2 (Homo sapiens, UniProt P51531). Kind of assay: MSD SMARCA2 degradation in A549 cell line. Set-up: endogenous in cells. The settings on record: 24 h; for Dmax: A549, A549 cells; for DC50: A549 cells, read-out: SMARCA2 MSD A549 degradation 24 h: Average external-Abs DC50. A digest of the protocol: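 A549 cells treated 24 h with compound, 3-fold series 1000 nM down to 0.152 nM plus DMSO. RIPA lysates captured on MSD plates, probed with rabbit anti-SMARCA2/BRM (1 µg/ml) then SULFO-TAG anti-rabbit, electrochemiluminescence read. DC50 and 24 h Dmax reported as letter bins.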
T2 sequence (P51531 whole entry): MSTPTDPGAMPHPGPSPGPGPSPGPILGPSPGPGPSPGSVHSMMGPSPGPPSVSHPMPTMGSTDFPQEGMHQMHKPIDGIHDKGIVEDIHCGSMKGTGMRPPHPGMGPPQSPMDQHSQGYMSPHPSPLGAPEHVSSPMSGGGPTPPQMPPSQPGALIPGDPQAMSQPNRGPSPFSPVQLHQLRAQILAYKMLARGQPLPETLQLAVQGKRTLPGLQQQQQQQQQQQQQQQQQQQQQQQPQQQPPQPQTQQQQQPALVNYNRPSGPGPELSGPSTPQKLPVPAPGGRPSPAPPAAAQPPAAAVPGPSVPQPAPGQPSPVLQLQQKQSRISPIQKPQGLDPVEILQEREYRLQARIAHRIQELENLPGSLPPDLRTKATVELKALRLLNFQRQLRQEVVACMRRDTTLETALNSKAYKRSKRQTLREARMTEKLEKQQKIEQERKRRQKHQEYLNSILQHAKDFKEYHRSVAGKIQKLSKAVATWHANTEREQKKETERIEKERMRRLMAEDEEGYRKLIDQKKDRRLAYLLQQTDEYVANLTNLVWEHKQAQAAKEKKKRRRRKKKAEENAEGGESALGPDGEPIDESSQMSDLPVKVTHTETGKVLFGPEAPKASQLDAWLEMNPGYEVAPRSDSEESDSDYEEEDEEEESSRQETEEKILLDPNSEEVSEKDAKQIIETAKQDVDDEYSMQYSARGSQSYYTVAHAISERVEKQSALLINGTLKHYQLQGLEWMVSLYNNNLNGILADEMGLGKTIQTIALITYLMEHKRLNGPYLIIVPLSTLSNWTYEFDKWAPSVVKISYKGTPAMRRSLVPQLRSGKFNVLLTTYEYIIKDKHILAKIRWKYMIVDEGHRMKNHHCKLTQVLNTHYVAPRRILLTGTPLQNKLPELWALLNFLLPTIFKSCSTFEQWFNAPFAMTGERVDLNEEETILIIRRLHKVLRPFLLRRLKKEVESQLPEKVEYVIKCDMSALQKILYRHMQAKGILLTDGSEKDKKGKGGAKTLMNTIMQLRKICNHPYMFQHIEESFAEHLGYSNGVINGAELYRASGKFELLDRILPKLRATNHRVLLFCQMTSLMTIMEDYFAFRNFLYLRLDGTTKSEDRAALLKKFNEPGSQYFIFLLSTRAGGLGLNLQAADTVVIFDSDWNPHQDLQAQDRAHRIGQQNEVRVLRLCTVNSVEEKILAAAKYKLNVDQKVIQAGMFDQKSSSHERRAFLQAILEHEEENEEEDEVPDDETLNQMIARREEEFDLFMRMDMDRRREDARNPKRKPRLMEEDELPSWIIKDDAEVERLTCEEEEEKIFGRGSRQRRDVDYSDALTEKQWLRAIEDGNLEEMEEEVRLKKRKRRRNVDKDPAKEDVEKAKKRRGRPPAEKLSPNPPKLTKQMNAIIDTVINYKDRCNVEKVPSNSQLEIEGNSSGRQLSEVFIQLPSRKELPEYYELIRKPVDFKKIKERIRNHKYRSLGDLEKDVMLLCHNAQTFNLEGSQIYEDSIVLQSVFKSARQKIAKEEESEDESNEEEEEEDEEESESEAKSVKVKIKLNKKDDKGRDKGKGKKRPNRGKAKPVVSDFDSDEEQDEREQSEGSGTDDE

Assay [2] deals with T2, SMARCA2. The experiment in a line: SMARCA2 Western blot MV4-11 degradation. Set-up: SMARCA2 and SMARCA4 protein degradation in MV4-11 cells; endogenous in cells; host or cells: MV4-11. The settings on record: 24 h; for Dmax: MV4-11, MV4-11 cells, read-out: SMARCA2 MSD MV411 degradation 24 h: average Dmax %; for DC50: MV4-11 cells, read-out: SMARCA2 MSD MV411 degradation 24 h: Mean external-Abs DC50. (In general: Immunoblotting shows a protein as a band on a membrane.)

T1 sequence (P51532 whole entry): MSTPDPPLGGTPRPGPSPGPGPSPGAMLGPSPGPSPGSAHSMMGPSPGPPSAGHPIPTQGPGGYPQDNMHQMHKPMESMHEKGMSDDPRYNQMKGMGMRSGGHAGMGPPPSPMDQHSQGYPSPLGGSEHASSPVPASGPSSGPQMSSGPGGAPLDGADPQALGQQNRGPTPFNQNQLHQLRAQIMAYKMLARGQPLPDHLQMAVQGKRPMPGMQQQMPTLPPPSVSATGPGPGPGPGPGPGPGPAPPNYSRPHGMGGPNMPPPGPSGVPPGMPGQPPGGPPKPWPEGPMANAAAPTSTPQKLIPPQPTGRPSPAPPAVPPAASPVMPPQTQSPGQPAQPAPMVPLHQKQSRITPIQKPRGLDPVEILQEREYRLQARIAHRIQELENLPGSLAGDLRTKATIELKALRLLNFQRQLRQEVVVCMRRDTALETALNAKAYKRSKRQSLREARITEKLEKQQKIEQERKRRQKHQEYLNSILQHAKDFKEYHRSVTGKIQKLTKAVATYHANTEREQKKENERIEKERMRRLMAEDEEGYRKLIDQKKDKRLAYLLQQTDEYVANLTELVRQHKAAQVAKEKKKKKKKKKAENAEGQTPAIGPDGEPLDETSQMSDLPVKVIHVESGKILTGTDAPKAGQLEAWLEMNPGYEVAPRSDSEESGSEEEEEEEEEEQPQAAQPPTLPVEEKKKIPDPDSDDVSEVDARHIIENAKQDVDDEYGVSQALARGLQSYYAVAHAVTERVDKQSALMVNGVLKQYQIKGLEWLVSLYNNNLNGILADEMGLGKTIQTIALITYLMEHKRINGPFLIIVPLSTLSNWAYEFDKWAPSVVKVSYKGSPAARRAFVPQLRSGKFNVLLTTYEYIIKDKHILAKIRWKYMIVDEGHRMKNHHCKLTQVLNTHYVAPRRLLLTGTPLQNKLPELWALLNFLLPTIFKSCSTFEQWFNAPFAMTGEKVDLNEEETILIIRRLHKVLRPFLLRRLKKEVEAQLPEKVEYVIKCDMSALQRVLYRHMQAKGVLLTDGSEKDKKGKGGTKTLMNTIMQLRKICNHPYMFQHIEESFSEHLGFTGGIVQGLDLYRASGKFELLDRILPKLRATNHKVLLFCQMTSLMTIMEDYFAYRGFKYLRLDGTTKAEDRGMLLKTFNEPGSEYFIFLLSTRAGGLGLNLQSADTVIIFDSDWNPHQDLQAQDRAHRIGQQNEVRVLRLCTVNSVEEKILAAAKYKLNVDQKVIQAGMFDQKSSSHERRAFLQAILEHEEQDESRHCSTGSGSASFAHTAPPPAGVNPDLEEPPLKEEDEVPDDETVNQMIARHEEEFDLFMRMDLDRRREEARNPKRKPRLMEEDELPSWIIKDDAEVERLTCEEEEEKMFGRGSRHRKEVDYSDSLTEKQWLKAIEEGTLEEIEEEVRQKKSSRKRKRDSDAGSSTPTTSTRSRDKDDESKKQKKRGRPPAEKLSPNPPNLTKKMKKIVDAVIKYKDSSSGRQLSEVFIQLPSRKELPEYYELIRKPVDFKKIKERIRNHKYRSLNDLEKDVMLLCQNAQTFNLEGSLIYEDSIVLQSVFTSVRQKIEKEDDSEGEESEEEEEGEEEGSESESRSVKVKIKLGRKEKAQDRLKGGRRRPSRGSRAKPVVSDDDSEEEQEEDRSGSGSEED

As for `Cc1ncsc1-c1cnc(CNC(=O)[C@@H]2C[C@@H](O)CN2C(=O)[C@@H](NC(=O)[C@H]2CC3(C2)C[C@H](N2CCC(c4ccc(N5C6CCC5CN(c5cc(-c7ccccc7O)nnc5N)C6)cc4)CC2)C3)C(C)(C)C)nc1` (stereo partly drawn) [I-25, (2S,4R)-1-((2S)-2-(6-(4-(4-(3-(3-amino-6-(2-hydroxyphenyl)pyridazin-4-yl)-3,8-diazabicyclo [3.2.1]octan-8-yl)phenyl)piperidin-1-yl)spiro[3.3]heptane-2-carboxamido)-3,3-dimethylbutanoyl)-4-hydroxy-N-((5-(4-methylthiazol-5-yl)pyrimidin-2-yl)methyl)pyrrolidine-2-carboxamide], the maximal degradation (Dmax) at SMARCA4, on SMARCA2 [1] and at SMARCA2 [2] was less than 50% throughout. The DC50 on SMARCA4, at SMARCA2 [1] and at SMARCA2 [2] was more than 1000 nM each time.
Turning to `Cc1ncsc1-c1ccc(CNC(=O)[C@@H]2C[C@@H](O)CN2C(=O)[C@@H](NC(=O)[C@H]2CC3(C2)C[C@H](N2CCC(c4ccc(N5C6CCC5CN(c5cc(-c7ccccc7O)nnc5N)C6)cc4)CC2)C3)C(C)(C)C)cn1` (stereo partly drawn) [I-27, (2S,4R)-1-((2S)-2-(6-(4-(4-(3-(3-amino-6-(2-hydroxyphenyl)pyridazin-4-yl)-3,8-diazabicyclo[3.2.1]octan-8-yl)phenyl)piperidin-1-yl)spiro[3.3]heptane-2-carboxamido)-3,3-dimethylbutanoyl)-4-hydroxy-N-((6-(4-methylthiazol-5-yl)pyridin-3-yl)methyl)pyrrolidine-2-carboxamide], the Dmax on SMARCA4, on SMARCA2 [1] and at SMARCA2 [2] was less than 50% in each case. The DC50 (as a rule, the midpoint of the concentration-degradation curve) was more than 1000 nM on SMARCA4, more than 1000 nM on SMARCA2 [1] and 100 to 500 nM on SMARCA2 [2].
Regarding `Cc1ncsc1-c1ccc(CNC(=O)[C@@H]2C[C@@H](O)CN2C(=O)[C@@H](NC(=O)[C@H]2CC3(C2)C[C@H](N2CCC(c4ccc(N5C6CCC5CN(c5cc(-c7ccccc7O)nnc5N)C6)cc4)CC2)C3)C(C)(C)C)cn1` (stereo partly drawn) [I-28, (2S,4R)-1-((2S)-2-(6-(4-(4-(3-(3-amino-6-(2-hydroxyphenyl)pyridazin-4-yl)-3,8-diazabicyclo[3.2.1]octan-8-yl)phenyl)piperidin-1-yl)spiro[3.3]heptane-2-carboxamido)-3,3-dimethylbutanoyl)-4-hydroxy-N-((6-(4-methylthiazol-5-yl)pyridin-3-yl)methyl)pyrrolidine-2-carboxamide], the results for the DC50 at SMARCA4, on SMARCA2 [1] and at SMARCA2 [2] were more than 1000 nM, more than 1000 nM and 100 to 500 nM, respectively.
On to `Cc1ncsc1-c1cnc(CNC(=O)[C@@H]2C[C@@H](O)CN2C(=O)[C@@H](NC(=O)[C@H]2CC3(C2)C[C@H](N2CCC(c4ccc(N5C6CCC5CN(c5cc(-c7ccccc7O)nnc5N)C6)cc4)CC2)C3)C(C)(C)C)cn1` (stereo partly drawn) [I-29, (2S,4R)-1-((2S)-2-(6-(4-(4-(3-(3-amino-6-(2-hydroxyphenyl)pyridazin-4-yl)-3,8-diazabicyclo[3.2.1]octan-8-yl)phenyl)piperidin-1-yl)spiro[3.3]heptane-2-carboxamido)-3,3-dimethylbutanoyl)-4-hydroxy-N-((5-(4-methylthiazol-5-yl)pyrazin-2-yl)methyl)pyrrolidine-2-carboxamide], for which the Dmax (commonly the largest share of the target that was removed) on SMARCA4 is 50 to 70%; at SMARCA2 [1], less than 50%; on SMARCA2 [2], less than 50%. Also, the DC50 on SMARCA4, on SMARCA2 [1] and on SMARCA2 [2] was more than 1000 nM in each case.
